# Tests used:
# U2OS/NOD2 cells = assay: Intracellular flow cytometry of CXCL8 after L18-MDP; format: cell-based, human; settings: U2OS/NOD2 RIPK2 KO cells reconstituted with T95W gatekeeper mutant; L18-MDP 200 ng/ml, 4 h
# Description: Purified material and lysates were analyzed by immunoblotting. […] Numbering below schematic refers to amino acid residues in human RIPK2 and indicate domain boundaries. […] Data information: Data in (A, B, D, H) represent the mean ± SEM of 2–4 independent experiments, each performed in duplicate. […] Two‐way ANOVA was used to determine statistical significance. See also Fig EV1.Source data are available online for this figure.
# Dark gray represents areas occupied by RIPK2; white areas indicate empty spaces in CSLP binding pocket. […] Dotted black box indicates region shown for models with CSLP37 and CSLP43. • Molecular docking model of RIPK2 kinase domain in complex with CSLP43 (green) based on RIPK2/CSLP18 structure from (D). […] Two‐way ANOVA was used to determine statistical significance. See also Fig EV2.
# (§1) GST-BIR2-XIAP as indicated. Intensity quantification of SPOTs was performed using ImageJ software
# (§2) Dual luciferase reporter assay
# (§3) Intracellular flow cytometry of CXCL8
# (§4) for cell death) or vehicle for 24h. Viability was determined using the CellTiter-Glo® luminescent cell
# (§5) together with Transfection Carrier DNA (Promega).
# (§6) After addition of Nano-Glo
# [1] = target: T1, XIAP BIR2 - RIPK2 interaction (Homo sapiens, UniProt O43353); assay: GST-BIR2-XIAP pulldown of RIPK2; format: binding; settings: U2OS/NOD2 lysates; inhibitors at 100-fold IC50 of RIPK2 kinase activity
# T1 construct: U2OS/NOD2 cells were lysed in TBS lysis buffer; endogenous in cells; host or cells: U2OS/NOD2 cell lysate (RIPK2); E. coli BL21 (GST-BIR2-XIAP)
# Description: (§7) For co‐immunoprecipitation of HA‐XIAP with RIPK2, transfected and treated cells were lysed in TBS buffer containing 0.5% NP‐40, cOmplete and PhosSTOP inhibitors (Roche) and the lysate was cleared by centrifugation. The lysates were incubated with anti‐HA‐agarose overnight, washed 3× with lysis buffer, and analyzed by immunoblotting. For GST pulldown experiments, U2OS/NOD2 cells were lysed in TBS lysis buffer containing 0.5% NP‐40, cOmplete and PhosSTOP inhibitors (Roche). Cleared lysates were pretreated with kinase inhibitors or DMSO and incubated with GST‐XIAP‐BIR2 bound to Glutathione Sepharose at 4°C overnight. Bound material was washed 3× with lysis buffer or PBS, eluted with 15 mM Glutathione in PBS, and analyzed by immunoblotting. […] The bound material was eluted and analyzed as described above.
# For coimmunoprecipitation of HA-XIAP with RIPK2, transfected and treated cells were lysed in TBS buffer containing 0.5% NP-40, cOmplete and PhosSTOP inhibitors (Roche) and the lysate was cleared by centrifugation. The lysates were incubated with anti-HA-agarose overnight, washed 3x with lysis buffer and analyzed by immunoblotting. For GST pull-down experiments, U2OS/NOD2 were lysed in TBS lysis buffer containing 0.5% NP-40, cOmplete and PhosSTOP inhibitors (Roche).
# Cleared lysates were pretreated with kinase inhibitors or DMSO and incubated with GST-XIAP-BIR2 bound to Glutathione Sepharose at 4 °C overnight. Bound material was washed 3x with lysis buffer or PBS, eluted with 15 mM Glutathione in PBS and analyzed by immunoblotting. In pull-down […]
# inhibitors or DMSO control in PBS were added together with RIPK2 kinase domain to GST-XIAP-BIR2 bound to Glutathione Sepharose. The bound material was eluted and analyzed as described above. […]
# [2] = tested on: RIPK2 ubiquitination in U2OS/NOD2 and THP-1 cells; assay: Purification of Ub-conjugates (TUBE pulldown), RIPK2 ubiquitination; format: cell-based, human
# Description: as §7, with “above. […]” for “above.”
# PBS, eluted with 15 mM Glutathione in PBS and analyzed by immunoblotting. […]
# [3] = target: T2, NanoLuc-RIPK2 WT and T95W (Homo sapiens, UniProt O43353, T95W); assay: nanoBRET assay in HEK293 cells with SGC-590001 probe; format: binding; settings: up to more than 100 nM
# T2 construct: expressed in transfected cells; host or cells: HEK293 cells
# Description: Purified material and lysates were analyzed by immunoblotting. […] Two‐way ANOVA was used to determine statistical significance.
# as §1, §2, §3, §4, §5, §6
# [4] = target: T3, XIAP-RIPK2 interaction in HEK293FT cells (Homo sapiens, UniProt O43353); assay: Co-immunoprecipitation of HA-XIAP with endogenous RIPK2; format: cell-based; settings: 200 nM
# T3 construct: endogenous RIPK2 from HEK293FT cells; endogenous in cells; host or cells: HEK293FT cells (RIPK2 endogenous; 3xHA-XIAP-F495A transfected)
# Description: Purified material and lysates were analyzed by immunoblotting. • Pulldown of RIPK2 from U2OS/NOD2 cell lysates with recombinant GST‐BIR2‐XIAP in the presence of CSLP inhibitors. […] Purified material and lysates were analyzed by immunoblotting. • Pulldown of recombinant RIPK2 kinase domain (dephosphorylated) with recombinant GST‐BIR2‐XIAP in the presence of CSLP inhibitors as indicated. Inhibitors were used at the same concentrations as in (C). Purified material and lysates were analyzed by immunoblotting. • Purification of Ub‐conjugates from THP‐1 cells after treatment with L18‐MDP (200 ng/ml, 1 h) and CSLP inhibitors as indicated. Purified material and lysates were analyzed by immunoblotting. […]
# For co‐immunoprecipitation of HA‐XIAP with RIPK2, transfected and treated cells were lysed in TBS buffer containing 0.5% NP‐40, cOmplete and PhosSTOP inhibitors (Roche) and the lysate was cleared by centrifugation. The lysates were incubated with anti‐HA‐agarose overnight, washed 3× with lysis buffer, and analyzed by immunoblotting. […] Bound material was washed 3× with lysis buffer or PBS, eluted with 15 mM Glutathione in PBS, and analyzed by immunoblotting. […] The bound material was eluted and analyzed as described above. […]
# (§8) Ubiquitin conjugates were purified from treated cells using GST-1xUBAubq ubiquitin affinity reagent and analyzed by immunoblotting as described (Fiil et al., 2013). […]
# GST-BIR2-XIAP [5] = target: T4, GST-BIR2-XIAP (Homo sapiens, UniProt P98170); assay: SPOT peptide assay; format: binding; settings: GST-tagged WT BIR2
# T4 construct: XIAP BIR2 domain (aa 124-242) into pGTVL2 vector in frame with N-terminal HIS and GST tags; made in house; host or cells: E. coli (BL21)
# Description: (§9) Cellulose‐bound peptide arrays were prepared employing standard Fmoc solid‐phase peptide synthesis using a MultiPep‐RSi‐Spotter (INTAVIS, Köln, Germany) as previously described (Picaud & Filippakopoulos, 2015). The assay was performed using recombinant 6xHIS‐GST‐BIR2 domain of XIAP protein, and bound protein was detected using anti‐His antibody HRP‐conjugated.
# (§10) For coimmunoprecipitation of HA-XIAP with RIPK2, transfected and treated cells were lysed in TBS buffer containing 0.5% NP-40, cOmplete and PhosSTOP inhibitors (Roche) and the lysate was cleared by centrifugation. The lysates were incubated with anti-HA-agarose overnight, washed 3x with lysis buffer and analyzed by immunoblotting. […]
# (§11) Cleared lysates were pretreated with kinase inhibitors or DMSO and incubated with GST-XIAP-BIR2 bound to Glutathione Sepharose at 4 °C overnight. Bound material was washed 3x with lysis buffer or PBS, eluted with 15 mM Glutathione in PBS and analyzed by immunoblotting. […] The bound material was eluted and analyzed as described above.
# as §8
# (§12) Proteins bound to peptides were detected using anti-His antibody HPR conjugated (diluted 1:15000) and the Pierce® ECL Western blotting Substrate (#32106, Thermo Fisher Scientific). […]
# GST-BIR2-XIAP [6] = target: T5, GST-BIR2-XIAP (Homo sapiens, UniProt P98170, D214S); assay: SPOT peptide assay; format: binding; settings: D214S mutant BIR2
# T5 construct: XIAP BIR2 domain (aa 124-242) into pGTVL2 vector in frame with N-terminal HIS and GST tags; made in house; host or cells: E. coli (BL21)
# Description: as §9, §10, §11, §8, §12
Compound,inhibition of NOD2 signaling (CXCL8) in cells expressing RIPK2 T95W (U2OS/NOD2 cells),pulldown of RIPK2 by GST-BIR2-XIAP from cell lysates [1],ubiquitination of kinase-dead RIPK2 variants after NOD2 stimulation ([2]; U2OS/NOD2 RIPK2 KO cells reconstituted with K47R or D146N),"RIPK2 ubiquitination after L18-MDP ([2]; U2OS/NOD2 or THP-1 cells, L18-MDP 200 ng/ml, 1 h)",binding to RIPK2 T95W in cells [3],co-immunoprecipitation of endogenous RIPK2 with HA-XIAP [4],binding of WT XIAP BIR2 domain to peptide (GST-BIR2-XIAP [5]),binding of D214S versus WT BIR2 domain to peptide (GST-BIR2-XIAP [6])
"Cc1ccc(C(=O)Nc2ccc(CN3CCN(C)CC3)c(C(F)(F)F)c2)cc1C#Cc1cnc2cccnn12 [ponatinib, reference compound]",largely abolished the inhibitory effect,interfered,prevented ubiquitination,antagonized,ablated the binding,prevented,–,–
"A-S-G-T-V-S-S-A-R-H-A-D-W-R-V (ASGTVSSARHADWRV) [A13, RIPK2 15-mer SPOT peptide, residues 28-42]",–,–,–,–,–,–,binds predominantly,reduced

# Reference: paper PMC6120666 (The EMBO Journal, 2018)
